Assay results from patent US20120107323A1, “KINASE PROTEIN BINDING INHIBITORS” (University of Florida, priority 2009, published 2012).
pIC50: −log10 of the molar value.

Experiments:
FAK and IGF-1R = biological target: T1, FAK and IGF-1R (Homo sapiens, UniProt Q05397); assay: Coimmunoprecipitation of FAK and IGF-1R in C8161 melanoma cells; assay type: cell-based; conditions: average IC50, C8161 cells, immunoprecipitation with antibody against FAK; read-out: IC50, disruption of FAK/IGF-1R binding
T1 construct: endogenous in cells; host or cells: C8161 (A2) and A375 (A3) melanoma cells
Source text: Computational Docking The crystal structures of the N-terminal domain of FAK (PDB code 2AL6) (22) and the kinase domain of IGF-1R(PDB 1P40A) (23) were utilized for in silico molecular modeling of their interaction as previously described. The three-dimensional coordinates of compound NSC344553 (INT2-31), obtained from the database of the National Cancer Institute, Developmental Therapeutics Program (NCI/DTP), were docked onto the predicted interface of the amino-terminus of FAK (amino acids 127-243) with the intracytoplasmic portion of IGF-1R (21). […] 100 orientations were created for NSC344553 in the target site and were scored using the computer program grid-based scoring function. […] The intermolecular energies for all configurations of NSC 344553 in binding to FAK-NT2 were calculated as the sum of electrostatic and van der Waals energies. These energy terms were evaluated as correlation functions, which were computed efficiently with Fast Fourier Transforms. […] Bound proteins were boiled in 6× Laemmli buffer and analyzed by SDS-PAGE and Western blotting. […] The intensity of the bands in the western blots was measured with scion image analysis software program. […]

C8161 melanoma cells [1] = assay: Apoptosis by Hoechst staining; assay type: cell-based, human; conditions: 5 μM, 72 h
Method: Detachment assay: Cells were plated with and without compound for 24, 48, and 72 h, and detached and attached cells were counted in a hemocytometer. The percent of detachment was calculated by dividing the number of detached cells by the total number of cells and experiments performed in triplicate. Apoptosis assays: After treatment, attached and detached cells were collected, counted and prepared for terminal uridine deoxynucleotidyl transferase (TUNEL) assay by utilizing an APO-BRDU kit (BD Pharmingen, San Diego, Calif.) and cells analyzed with a FACSCalibur cytometer (Becton Dickinson, San Jose, Calif.). In addition, apoptotic cells were analyzed with Hoechst 33342 staining (1 μg/ml). The percent of apoptotic cells was calculated as the ratio of apoptotic cells to total number of cells.
In addition, apoptotic cells were also analyzed by Hoechst staining. To the prepared cells as described above, Hoechst 33342 (1 μg/ml) was added, incubated in the dark room temperature for 10 minutes, and the specimens were mounted on glass coverslips. The slides were viewed under the Zeiss microscope for apoptotic nuclei. The percent of apoptotic cells was calculated as the ratio of apoptotic cells to total number of cells. Over 300 cells per sample were analyzed.

C8161 melanoma cells [2] = assay: Cell counts, C8161; assay type: cell-based, human

T1 sequence (Q05397 2-1052 limits assumed): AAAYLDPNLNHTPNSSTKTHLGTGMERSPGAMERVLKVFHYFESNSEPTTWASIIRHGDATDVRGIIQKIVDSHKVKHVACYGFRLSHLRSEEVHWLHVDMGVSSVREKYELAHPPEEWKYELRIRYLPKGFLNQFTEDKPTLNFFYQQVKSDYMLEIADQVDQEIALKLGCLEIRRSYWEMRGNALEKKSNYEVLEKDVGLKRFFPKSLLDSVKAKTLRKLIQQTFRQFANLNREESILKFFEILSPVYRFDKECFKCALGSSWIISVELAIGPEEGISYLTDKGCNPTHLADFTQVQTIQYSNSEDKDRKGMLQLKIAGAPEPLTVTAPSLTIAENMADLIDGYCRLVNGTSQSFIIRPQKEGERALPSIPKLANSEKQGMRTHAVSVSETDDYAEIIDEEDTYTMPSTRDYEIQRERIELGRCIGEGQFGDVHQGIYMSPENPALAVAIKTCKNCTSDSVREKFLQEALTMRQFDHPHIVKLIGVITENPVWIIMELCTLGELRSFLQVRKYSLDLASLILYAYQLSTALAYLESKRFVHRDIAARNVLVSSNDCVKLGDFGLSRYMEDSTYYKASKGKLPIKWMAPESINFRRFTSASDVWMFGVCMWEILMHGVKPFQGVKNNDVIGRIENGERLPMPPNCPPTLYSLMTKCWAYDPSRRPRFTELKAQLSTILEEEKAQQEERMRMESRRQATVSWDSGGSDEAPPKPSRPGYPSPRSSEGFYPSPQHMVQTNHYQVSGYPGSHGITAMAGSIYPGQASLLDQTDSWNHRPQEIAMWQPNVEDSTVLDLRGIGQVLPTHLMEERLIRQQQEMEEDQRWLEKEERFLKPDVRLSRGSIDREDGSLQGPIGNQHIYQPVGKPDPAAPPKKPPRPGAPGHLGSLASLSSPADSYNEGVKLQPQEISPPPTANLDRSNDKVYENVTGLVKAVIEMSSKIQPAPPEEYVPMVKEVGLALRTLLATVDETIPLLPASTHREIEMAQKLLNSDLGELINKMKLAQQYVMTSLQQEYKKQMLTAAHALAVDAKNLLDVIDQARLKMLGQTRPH

CSc1ncnc2c1ccn2C1O[C@H](COP(=O)(O)O)[C@@H](O)[C@H]1O (stereo partly drawn) [INT2-31, 4-(Methylthio)-7-(5-O-phosphono-D-ribofuranosyl)-{7H-Pyrrolo[2,3-d]pyrimidine}]
pIC50 (FAK and IGF-1R): 5.57 | induction of apoptosis, Hoescht positive cells (C8161 melanoma cells [1]): greater than 50% | growth, cell numbers (C8161 melanoma cells [2]): potent time and dose dependent inhibition
